# Reference: patent US8802672B2, “Pyrimidinyl-piperazines useful as D3/D2 receptor ligands” (Richter Gedeon Nyrt., priority 2007, dated 2014)
# What was measured:
# [1] = target: adrenergic alpha-1 receptors (rat cortical membrane preparation); assay: Alpha-1 receptor binding; details: [3H]-prazosine, rat cortical membranes; read-out: α-1 Ki
# [2] = target: rat recombinant D3 receptors (Rattus norvegicus (Rat), UniProt P19020); assay: D3 receptor binding; details: for Ki: [3H]spiperone, rat recombinant D3 in Sf9 cells
# [3] = target: D2 receptor (rat brain striatal membrane preparation) (Rattus norvegicus (Rat), UniProt P61169); assay: D2 receptor binding; details: [3H]spiperone, rat striatal membranes
# male Wistar rats [4] = assay: Catalepsy test; format: in vivo; details: rat; for Catalepsy (MED): oral, minimum effective cataleptic dose; for TI, therapeutic index - catalepsy MED divided by amphetamine hypermotility ED50: in vivo
# male Wistar rats [5] = assay: Amphetamine-induced hypermotility; format: in vivo; details: oral, rat, d-amphetamine 0.5 mg/kg sc.; for ED50: read-out: Inhibition of amphetamine-induced hypermotility (ED50)
# Experimental: 4. Amphetamine-Induced Hypermotility
# One hour after the oral administration of doses of the test compound or vehicle, male Wistar rats were subcutaneously treated with d-amphetamine (0.5 mg/kg, sc.) and were individually placed in activity cages for one hour. Locomotor activity was measured in a four-channel activity monitor equipped with infrared photobeams Horizontal movement was determined as the number of beam interruptions. Mean±SE of horizontal activity data of each group was calculated. Percent inhibition of amphetamine-induced increase in locomotion was calculated for each dose of the tested compound. The ED-50 value was determined by linear regression fitted to the dose-response plot.
# male Wistar rats [6] = assay: Scopolamine-induced learning disturbance in the water-labyrinth; format: in vivo, rat
# Experimental: 6. Scopolamine-Induced Learning Disturbance in the Water-Labyrinth
# The learning process of rats was assessed in a 3-choice point water-labyrinth system. The number of directional turning errors was recorded in three daily trials for three experimental days. Male Wistar rats weighing 180-200 g (n=10 per groups) were treated orally with vehicle or the test compounds 1 hour before each daily session. Scopolamine (3 mg/kg ip.) as amnestic agent was injected 30 minutes prior to the first daily trial. Mean±SE of errors committed in all the trials was calculated in each group. Percent inhibition of scopolamine-induced increase in the number of errors was calculated for each dose of the tested compound.
# D2 receptor (rat brain striatal membrane preparation), sequence (P61169 whole entry): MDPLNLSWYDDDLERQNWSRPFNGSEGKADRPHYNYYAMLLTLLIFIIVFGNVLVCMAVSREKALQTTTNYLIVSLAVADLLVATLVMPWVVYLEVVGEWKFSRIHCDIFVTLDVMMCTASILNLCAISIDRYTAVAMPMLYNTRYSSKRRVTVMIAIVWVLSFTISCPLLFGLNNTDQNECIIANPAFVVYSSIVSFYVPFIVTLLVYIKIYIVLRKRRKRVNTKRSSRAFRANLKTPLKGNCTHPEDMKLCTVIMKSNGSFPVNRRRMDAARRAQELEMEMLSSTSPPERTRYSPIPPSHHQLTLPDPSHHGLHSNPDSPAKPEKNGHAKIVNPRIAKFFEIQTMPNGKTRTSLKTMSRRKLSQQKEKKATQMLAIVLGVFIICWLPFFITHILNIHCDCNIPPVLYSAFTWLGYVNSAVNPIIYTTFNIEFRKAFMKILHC
# rat recombinant D3 receptors, sequence (P19020 whole entry): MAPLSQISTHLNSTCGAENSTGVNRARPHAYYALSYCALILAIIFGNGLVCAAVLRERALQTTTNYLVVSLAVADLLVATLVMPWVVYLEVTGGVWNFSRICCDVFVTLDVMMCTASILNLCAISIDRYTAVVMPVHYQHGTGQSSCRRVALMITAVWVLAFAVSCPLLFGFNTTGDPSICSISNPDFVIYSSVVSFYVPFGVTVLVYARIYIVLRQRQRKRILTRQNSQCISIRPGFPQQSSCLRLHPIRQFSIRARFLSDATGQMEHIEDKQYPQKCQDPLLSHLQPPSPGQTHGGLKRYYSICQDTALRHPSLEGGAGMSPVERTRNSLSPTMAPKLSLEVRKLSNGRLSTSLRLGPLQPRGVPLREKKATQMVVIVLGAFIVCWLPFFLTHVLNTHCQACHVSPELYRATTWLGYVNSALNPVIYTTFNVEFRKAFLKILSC
SMILES,Ki [1] [nM],"Sel. = D2/D3 selectivity, Ki for D2 receptor divided by Ki for D3 receptor [2]",Ki [2] [nM],Ki [3] [nM],other results
"CNc1nc(Cl)c(Cl)c(N2CCN(CC[C@H]3CC[C@H](NC(=O)N4CCOCC4)CC3)CC2)n1 [Compound 7, trans-morpholine-4-carboxylic acid (4-{2-[4-(5,6-dichloro-2-methylamino-pyrimidin-4-yl)-piperazin-1-yl]-ethyl}-cyclohexyl)-amide]",> 1000,,,,
"CCNC(=O)N[C@H]1CC[C@H](CCN2CCN(c3nc(NC)nc(Cl)c3Cl)CC2)CC1 [Compound 10, Trans-1-(4-{2-[4-(5,6-dichloro-2-methylamino-pyrimidin-4-yl)-piperazin-1-yl]-ethyl}-cyclohexyl)-3-ethyl-urea]",,17,,,
"CCNc1nc(Cl)c(Cl)c(N2CCN(CC[C@H]3CC[C@H](NC(C)=O)CC3)CC2)n1 [Compound 6, trans-N-(4-{2-[4-(5,6-dichloro-2-ethylamino-pyrimidin-4-yl)-piperazin-1-yl]-ethyl}-cyclohexyl)-acetamide]",> 1000,23,,,
"Cc1nc2n(c(=O)c1CCN1CCC(c3noc4cc(F)ccc34)CC1)CCCC2 [Risperidone, reference compound]",,,,,ED50 (male Wistar rats [5]): 0.15 mg/kg; % inhibition of scopolamine-induced learning disturbance (male Wistar rats [6]; dose 0.5 mg/kg oral): −15%
"Cc1cc2c(s1)Nc1ccccc1N=C2N1CCN(C)CC1 [Olanzapine, reference compound]",,,,,ED50 (male Wistar rats [5]): 1.8 mg/kg; % inhibition of scopolamine-induced learning disturbance (male Wistar rats [6]; dose 1 mg/kg oral): −12%; % inhibition of scopolamine-induced learning disturbance (male Wistar rats [6]; dose 3 mg/kg oral): −49%
CNc1nc(Cl)c(Cl)c(N2CCN(CC[C@H]3CC[C@H](NC(=O)N(C)C)CC3)CC2)n1 [Compound 8],> 1000,7,1 to 3,15 to 50,"Inhibition of amphetamine-induced hypermotility (ED50) (male Wistar rats [5]): 0.14 mg/kg; % inhibition of scopolamine-induced learning disturbance (male Wistar rats [6]; dose 0.025 mg/kg oral): 38%; % inhibition of scopolamine-induced learning disturbance (male Wistar rats [6]; dose 0.05 mg/kg oral): 65%; % inhibition of scopolamine-induced learning disturbance (male Wistar rats [6]; dose 1 mg/kg oral): 31%; Catalepsy (MED) (male Wistar rats [4]): >25 mg/kg; TI, therapeutic index - catalepsy MED divided by amphetamine hypermotility ED50 (male Wistar rats [4]): >179"

# The next lines start with results.
Ki [1] [nM],"Sel. = D2/D3 selectivity, Ki for D2 receptor divided by Ki for D3 receptor [2]",Ki [2] [nM],Ki [3] [nM],SMILES,other results
> 1000,43,< 1,5 to 15,CCC(=O)N[C@H]1CC[C@H](CCN2CCN(c3nc(NC)nc(Cl)c3Cl)CC2)CC1 [Compound 11],
,22,< 1,15 to 50,"CNc1nc(Cl)c(Cl)c(N2CCN(CC[C@H]3CC[C@H](NC(C)=O)CC3)CC2)n1 [Compound 1, Trans-N-(4-{2-[4-(5,6-dichloro-2-methylamino-pyrimidin-4-yl)-piperazin-1-yl]-ethyl}-cyclohexyl)-acetamide]","Catalepsy (MED) (male Wistar rats [4]): 100 mg/kg; TI, therapeutic index - catalepsy MED divided by amphetamine hypermotility ED50 (male Wistar rats [4]): 714"
> 1000,27,,,"CNc1nc(Cl)c(Cl)c(N2CCN(CC[C@H]3CC[C@H](NC(N)=O)CC3)CC2)n1 [Compound 2, Trans-(4-{2-[4-(5,6-dichloro-2-methylamino-pyrimidin-4-yl)-piperazin-1-yl]-ethyl}-cyclohexyl)-urea]",
